As a reminder, the EC50 is the concentration giving half of the maximal effect.

Where a SMILES comes first, the peptide text is derived from it.

Data on 13 compounds can be found in US20170081368A1, “PEPTIDES AS OXYTOCIN AGONISTS” (Hoffmann-La Roche Inc., priority 2014, published 2017).

For this test, the target named is T1, human Oxytocin (OTR) receptor (Homo sapiens, UniProt P30559).
T1 construct: expressed in transfected cells
T1 sequence (P30559 1-389): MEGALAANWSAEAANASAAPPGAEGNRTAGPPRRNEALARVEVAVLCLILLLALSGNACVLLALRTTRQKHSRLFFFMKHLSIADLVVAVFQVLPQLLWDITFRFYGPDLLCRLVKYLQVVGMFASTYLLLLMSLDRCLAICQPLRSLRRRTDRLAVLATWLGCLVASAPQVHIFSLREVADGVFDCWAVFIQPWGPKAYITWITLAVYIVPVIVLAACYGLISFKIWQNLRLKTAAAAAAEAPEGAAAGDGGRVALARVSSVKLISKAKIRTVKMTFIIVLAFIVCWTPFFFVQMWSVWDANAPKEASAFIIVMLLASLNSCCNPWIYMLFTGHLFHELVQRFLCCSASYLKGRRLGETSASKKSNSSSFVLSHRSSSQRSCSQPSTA
The test can be described thus: Calcium flux assay (FLIPR) in CHO cells expressing human OTR. In kind it is cell-based. The following applies: for Emax: CHO, maximum response normalized to endogenous full agonist = 100%, read-out: hOT efficacy; for EC50: agonist mode, CHO cells, calcium flux FLIPR, read-out: hOT EC50. The text has this: Chines Hamster Ovary (CHO) cells were transfected with expression plasmids encoding either the human Vla, the human Oxytocin (OTR) or the humanV2 receptor, the later in combination with the chimeric Gqs5 G protein to redirect the signal to Calcium flux. Stable cells were cloned by limiting dilution to yield monoclonal cell lines expressing either human Vla, human V2+Gqs5 or human OTR receptors and selected based on functional responses detected on a fluorometric imaging plate reader (FLIPR) detecting Calcium flux in the cell after receptor activation. The stable cell lines were grown in F-12 K Nutrient Mixture (Kaighns Modification), containing 10% foetal bovine serum (FBS), 1% penicillin-streptomycin, 1% L-glutamate, 200 ug/ml Geneticin at 37° C. in a 10% CO2 incubator at 95% humidity.
Calcium Flux Assays Using Fluorescent Imaging (Fluorometric Imaging Plate Reader, FLIPR)
On the afternoon before the assay, cells were plated at a density of 50,000 cells/well into black 96 well plates with clear bottoms to allow cell inspection and fluorescence measurements from the bottom of each well. The density of cells was sufficient to yield a confluent monolayer the next day. Hanks balanced salt solution, without phenol red, containing 20 mM HEPES (pH 7.3) and 2.5 mM probenecid (assay buffer) was prepared fresh for each experiment. Compound dilutions were made using a Beckman Biomek 2000 laboratory automation workstation, in assay buffer containing 1% DMSO. The dye-loading buffer consisted of a final concentration of 2 μM Fluo-4-AM (dissolved in DMSO and pluronic acid) in assay buffer. The existing culture media was removed from the wells and 100 μl of the dye-loading buffer was added to each well and incubated for approximately 60 min at 37° C. in a 5% CO2 incubator at 95% humidity. Once dye-loaded, the cells were washed thoroughly on an Embla cell washer with the assay buffer to remove any unincorporated dye. Exactly 100 μl assay buffer was left in each well.
Each 96 well plate containing dye-loaded cells was placed into the FLIPR machine and the laser intensity set to a suitable level to detect low basal fluorescence. To test compounds as agonists, 25 μl diluted compound was added to the plate 10 seconds into the fluorescent measurements and fluorescent response was recorded for 5 minutes. The fluorescence data was normalized to the endogenous full agonist dose-response set at 100% for the maximum response and 0% for the minimum. Each agonist concentration-response curve was constructed using a four parameter logistic equation with Microsoft Excel XLFit as follows: Y=Minimum+((Maximum−Minimum)/(1+10^(LogEC50−X)nH)), where y is the % normalized fluorescence, minimum is the minimum y, maximum is the maximum y, log EC50 is the log10 concentration which produces 50% of the maximum induced fluorescence, x is the log10 of the concentration of the agonist compound and H is the slope of the curve (the Hill Coefficient). The maximum value gives the efficacy of the agonist test compound in percentage. The concentration of agonist that produced a half-maximal response is represented by the EC50 value, the logarithm of which yielded the pEC50 value.
For orientation: A change in cytosolic calcium serves as a functional read-out for many receptors and channels.

In the case of `CC[C@H](C)[C@@H]1NC(=O)[C@H](Cc2ccc(O)cc2)NC(=O)CCS(=O)(=O)CC[C@@H](C(=O)N2CC(F)(F)C[C@H]2C(=O)N[C@@H](CC(C)C)C(=O)NCC(N)=O)NC(=O)[C@H](CC(N)=O)NC(=O)[C@H](CCC(N)=O)NC1=O` [Example 3] (HELM PEPTIDE1{Y.I.Q.N.[O=C([C@H](CCS(=O)(=O)CCC(=O)[*:3])N[*:1])[*:2]].[O=C([C@@H]1CC(F)(F)CN1[*:1])[*:2]].L.G.[am]}$PEPTIDE1,PEPTIDE1,1:R1-5:R3$$$V2.0), the Emax came out at 144% and the EC50 amounted to 1.7 nM.

`CC[C@H](C)[C@@H]1NC(=O)[C@H](Cc2ccc(O)cc2)NC(=O)CCS(=O)(=O)CC[C@@H](C(=O)N2CC[C@H]2C(=O)N[C@@H](CC(C)C)C(=O)NCC(N)=O)NC(=O)[C@H](CC(N)=O)NC(=O)[C@H](CCC(N)=O)NC1=O` [Example 4] (HELM PEPTIDE1{Y.I.Q.N.[O=C([C@H](CCS(=O)(=O)CCC(=O)[*:3])N[*:1])[*:2]].[O=C([C@@H]1CCN1[*:1])[*:2]].L.G.[am]}$PEPTIDE1,PEPTIDE1,1:R1-5:R3$$$V2.0): the Emax was 128% and the EC50 was found to be 3 nM.

Take `CC[C@H](C)[C@@H]1NC(=O)[C@H](Cc2ccc(O)cc2)NC(=O)CCS(=O)(=O)CC[C@@H](C(=O)N2CCCC[C@H]2C(=O)N[C@@H](CC(C)C)C(=O)NCC(N)=O)NC(=O)[C@H](CC(N)=O)NC(=O)[C@H](CCC(N)=O)NC1=O` [Example 5] (HELM PEPTIDE1{Y.I.Q.N.[O=C([C@H](CCS(=O)(=O)CCC(=O)[*:3])N[*:1])[*:2]].[O=C([C@@H]1CCCCN1[*:1])[*:2]].L.G.[am]}$PEPTIDE1,PEPTIDE1,1:R1-5:R3$$$V2.0): the Emax stood at 130% and the EC50 was 3.8 nM. With `CC[C@H](C)[C@@H]1NC(=O)[C@H](Cc2ccc(O)cc2)NC(=O)CCS(=O)(=O)CC[C@@H](C(=O)N2C[C@@H](F)C[C@H]2C(=O)N[C@@H](CC(C)C)C(=O)NCC(N)=O)NC(=O)[C@H](CC(N)=O)NC(=O)[C@H](CCC(N)=O)NC1=O` [Example 6] (HELM PEPTIDE1{Y.I.Q.N.[O=C([C@H](CCS(=O)(=O)CCC(=O)[*:3])N[*:1])[*:2]].[O=C([C@@H]1C[C@H](F)CN1[*:1])[*:2]].L.G.[am]}$PEPTIDE1,PEPTIDE1,1:R1-5:R3$$$V2.0; C-terminus assumed; bridges inferred), the Emax was 145%. With `CC[C@H](C)[C@@H]1NC(=O)[C@H](Cc2ccc(O)cc2)NC(=O)CCS(=O)(=O)CC[C@@H](C(=O)N2C[C@@H](F)C[C@H]2C(=O)N[C@@H](CC(C)C)C(=O)NCC(N)=O)NC(=O)[C@H](CC(N)=O)NC(=O)[C@H](CCC(N)=O)NC1=O` [Example 7] (HELM PEPTIDE1{Y.I.Q.N.[O=C([C@H](CCS(=O)(=O)CCC(=O)[*:3])N[*:1])[*:2]].[O=C([C@@H]1C[C@H](F)CN1[*:1])[*:2]].L.G.[am]}$PEPTIDE1,PEPTIDE1,1:R1-5:R3$$$V2.0), the Emax turned out to be 141% and the EC50 worked out at 2.6 nM. For the compound `CC[C@H](C)[C@@H]1NC(=O)[C@H](Cc2ccc(O)cc2)NC(=O)CCS(=O)(=O)CC[C@@H](C(=O)N2C[C@H](O)C[C@H]2C(=O)N[C@@H](CC(C)C)C(=O)NCC(N)=O)NC(=O)[C@H](CC(N)=O)NC(=O)[C@H](CCC(N)=O)NC1=O` [Example 8] (HELM PEPTIDE1{Y.I.Q.N.[O=C([C@H](CCS(=O)(=O)CCC(=O)[*:3])N[*:1])[*:2]].[Hyp].L.G.[am]}$PEPTIDE1,PEPTIDE1,1:R1-5:R3$$$V2.0), the Emax was found to be 129% and the EC50 came to 0.8 nM.

With `CCCC[C@H](NC(=O)CN(C)C(=O)[C@@H]1CCS(=O)(=O)CCC(=O)N[C@@H](Cc2ccc(O)cc2)C(=O)N[C@@H]([C@@H](C)CC)C(=O)N[C@@H](CCC(N)=O)C(=O)N[C@@H](CC(N)=O)C(=O)N1)C(=O)NCC(N)=O` [Example 9] (HELM PEPTIDE1{Y.I.Q.N.[O=C([C@H](CCS(=O)(=O)CCC(=O)[*:3])N[*:1])[*:2]].[Sar].[Nle].G.[am]}$PEPTIDE1,PEPTIDE1,1:R1-5:R3$$$V2.0), the Emax came out at 104% and the EC50 came to 1 nM.

As to `CC[C@H](C)[C@@H]1NC(=O)[C@H](Cc2ccc(O)cc2)NC(=O)CCS(=O)(=O)CC[C@@H](C(=O)N(C)CC(=O)NC(C)(C)C(=O)NCC(N)=O)NC(=O)[C@H](CC(N)=O)NC(=O)[C@H](CCC(N)=O)NC1=O` [Example 10] (HELM PEPTIDE1{Y.I.Q.N.[O=C([C@H](CCS(=O)(=O)CCC(=O)[*:3])N[*:1])[*:2]].[Sar].[Aib].G.[am]}$PEPTIDE1,PEPTIDE1,1:R1-5:R3$$$V2.0; C-terminus assumed; bridges inferred), the Emax came out at 100%. `CC[C@H](C)[C@@H]1NC(=O)[C@H](Cc2ccc(O)cc2)NC(=O)CCS(=O)(=O)CC[C@@H](C(=O)N(C)CC(=O)N[C@@H](CC2CCCCC2)C(=O)NCC(N)=O)NC(=O)[C@H](CC(N)=O)NC(=O)[C@H](CCC(N)=O)NC1=O` [Example 11] (HELM PEPTIDE1{Y.I.Q.N.[O=C([C@H](CCS(=O)(=O)CCC(=O)[*:3])N[*:1])[*:2]].[Sar].[Cha].G.[am]}$PEPTIDE1,PEPTIDE1,1:R1-5:R3$$$V2.0; C-terminus assumed; bridges inferred): the Emax worked out at 115%. As to `CC[C@H](C)[C@@H]1NC(=O)[C@H](Cc2ccc(O)cc2)NC(=O)CCS(=O)(=O)CC[C@@H](C(=O)N(C)CC(=O)N[C@H](C(=O)NCC(N)=O)C(C)C)NC(=O)[C@H](CC(N)=O)NC(=O)[C@H](CCC(N)=O)NC1=O` [Example 12] (HELM PEPTIDE1{Y.I.Q.N.[O=C([C@H](CCS(=O)(=O)CCC(=O)[*:3])N[*:1])[*:2]].[Sar].V.G.[am]}$PEPTIDE1,PEPTIDE1,1:R1-5:R3$$$V2.0), the Emax is 112% and the EC50 was determined as 1.4 nM. As for `CC[C@H](C)[C@H](NC(=O)CN(C)C(=O)[C@@H]1CCS(=O)(=O)CCC(=O)N[C@@H](Cc2ccc(O)cc2)C(=O)N[C@@H]([C@@H](C)CC)C(=O)N[C@@H](CCC(N)=O)C(=O)N[C@@H](CC(N)=O)C(=O)N1)C(=O)NCC(N)=O` [Example 13] (HELM PEPTIDE1{Y.I.Q.N.[O=C([C@H](CCS(=O)(=O)CCC(=O)[*:3])N[*:1])[*:2]].[Sar].I.G.[am]}$PEPTIDE1,PEPTIDE1,1:R1-5:R3$$$V2.0; C-terminus assumed; bridges inferred), the Emax was determined as 117%. On to `CCC[C@H](NC(=O)CN(C)C(=O)[C@@H]1CCS(=O)(=O)CCC(=O)N[C@@H](Cc2ccc(O)cc2)C(=O)N[C@@H]([C@@H](C)CC)C(=O)N[C@@H](CCC(N)=O)C(=O)N[C@@H](CC(N)=O)C(=O)N1)C(=O)NCC(N)=O` [Example 14] (HELM PEPTIDE1{Y.I.Q.N.[O=C([C@H](CCS(=O)(=O)CCC(=O)[*:3])N[*:1])[*:2]].[Sar].[Nva].G.[am]}$PEPTIDE1,PEPTIDE1,1:R1-5:R3$$$V2.0; C-terminus assumed; bridges inferred), for which the Emax amounted to 117% and the EC50 worked out at 0.7 nM. Consider `CC[C@H](C)[C@@H]1NC(=O)[C@H](Cc2ccc(O)cc2)NC(=O)CCS(=O)(=O)CC[C@@H](C(=O)N(C)CC(=O)N[C@@H](CCC(C)C)C(=O)NCC(N)=O)NC(=O)[C@H](CC(N)=O)NC(=O)[C@H](CCC(N)=O)NC1=O` [Example 15] (HELM PEPTIDE1{Y.I.Q.N.[O=C([C@H](CCS(=O)(=O)CCC(=O)[*:3])N[*:1])[*:2]].[Sar].[CC(C)CC[C@H](N[*:1])C(=O)[*:2]].G.[am]}$PEPTIDE1,PEPTIDE1,1:R1-5:R3$$$V2.0), for which the Emax was 107% and the EC50 stood at 1 nM.
